Our source for the IC50 values is patent US10118930B2, “Piperidinylpyrazolopyrimidinones and their use” (BAYER PHARMA AKTIENGESELLSCHAFT, priority 2015, dated 2018).

Counter-ions that a name gives are not always drawn.

In this test the test system is clot lysis (fibrinolysis) in diluted human citrated plasma, tPA-induced. The experiment in a line: Plasma-based clot lysis assay (5%). The following applies: human citrated platelet-poor plasma 5%, fibrinogen 3 μM, CaCl2 10 mM, tPA 0.2 nM, 37° C., OD at 405 nm. It counts as biochemical. In short, it runs like this:
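Compounds added to 5% platelet-poor citrated human plasma with 3 μM fibrinogen in 20 mM HEPES, 150 mM NaCl, 0.01% Brij, pH 7. Clotting and lysis started with 10 mM CaCl2 and 0.2 nM tPA at 37° C. IC50 derived by comparing time courses with a blank control reaction.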

`CC(C)S(=O)(=O)Cc1noc(-c2cnn3c(C4CCNCC4)cc(=O)[nH]c23)n1` [Example 201, 3-{3-[(isopropylsulfonyl)methyl]-1,2,4-oxadiazol-5-yl}-7-(piperidin-4-yl)pyrazolo[1,5-a]pyrimidin-5(4H)-one hydrochloride] had an IC50 of 34 nM.

In turn, `CN1CCC(Cc2noc(-c3cnn4c(C5CCNCC5)cc(=O)[nH]c34)n2)CC1` [Example 203, 3-{3-[(1-methylpiperidin-4-yl)methyl]-1,2,4-oxadiazol-5-yl}-7-(piperidin-4-yl)pyrazolo[1,5-a]pyrimidin-5(4H)-one hydrochloride] returned an IC50 of 34 nM.

In turn, `COC(=O)c1ccc(-c2noc(-c3cnn4c(C5CCNCC5)cc(=O)[nH]c34)n2)cc1` [Example 204, Methyl 4-{5-[5-oxo-7-(piperidin-4-yl)-4,5-dihydropyrazolo[1,5-a]pyrimidin-3-yl]-1,2,4-oxadiazol-3-yl}benzoate hydrochloride] registered an IC50 of 35 nM.

`O=c1cc(C2CCNCC2)n2ncc(-c3nc(-c4cccc([N+](=O)[O-])c4)no3)c2[nH]1` [Example 205, 3-[3-(3-nitrophenyl)-1,2,4-oxadiazol-5-yl]-7-(piperidin-4-yl)pyrazolo[1,5-a]pyrimidin-5(4H)-one hydrochloride] gave an IC50 of 35 nM.

With `Nc1cccc(-c2noc(-c3cnn4c(C5CCNCC5)cc(=O)[nH]c34)n2)c1` [Example 208, 3-[3-(3-aminophenyl)-1,2,4-oxadiazol-5-yl]-7-(piperidin-4-yl)pyrazolo[1,5-a]pyrimidin-5 (4H)-one hydrochloride], the IC50 was 55 nM.

`O=c1cc(C2CCNCC2)n2ncc(-c3nc(Cc4ccccc4Cl)no3)c2[nH]1` [Example 209, 3-[3-(2-chlorobenzyl)-1,2,4-oxadiazol-5-yl]-7-(piperidin-4-yl)pyrazolo[1,5-a]pyrimidin-5(4H)-one hydrochloride] returned an IC50 of 36 nM.

`O=c1cc(C2CCNCC2)n2ncc(-c3nc(Cc4ccc(Cl)cc4)no3)c2[nH]1` [Example 210, 3-[3-(4-chlorobenzyl)-1,2,4-oxadiazol-5-yl]-7-(piperidin-4-yl)pyrazolo[1,5-a]pyrimidin-5(4H)-one hydrochloride]: the IC50 was found to be 34 nM.

`NCc1noc(-c2cnn3c(C4CCNCC4)cc(=O)[nH]c23)n1` [Example 212, 3-[3-(aminomethyl)-1,2,4-oxadiazol-5-yl]-7-(piperidin-4-yl)pyrazolo[1,5-a]pyrimidin-5 (4H)-one hydrochloride] came in with an IC50 of 58 nM.

Molecule `O=c1cc(C2CCNCC2)n2ncc(-c3nc(Cc4ccc(Cl)c(Cl)c4)no3)c2[nH]1` [Example 213, 3-[3-(3,4-dichlorobenzyl)-1,2,4-oxadiazol-5-yl]-7-(piperidin-4-yl)pyrazolo[1,5-a]pyrimidin-5 (4H)-one hydrochloride] had an IC50 of 30 nM.

As for `Cc1ccc(Cc2noc(-c3cnn4c(C5CCNCC5)cc(=O)[nH]c34)n2)cc1` [Example 214, 3-[3-(4-methylbenzyl)-1,2,4-oxadiazol-5-yl]-7-(piperidin-4-yl)pyrazolo[1,5-a]pyrimidin-5(4H)-one hydrochloride], the IC50 was determined as 32 nM. This IC50 and that of the molecule before are within 1.5-fold of each other.

In turn, `CC(c1ccccc1)c1noc(-c2cnn3c(C4CCNCC4)cc(=O)[nH]c23)n1` (stereo not shown) [Example 215, 3-[3-(1-phenylethyl)-1,2,4-oxadiazol-5-yl]-7-(piperidin-4-yl)pyrazolo[1,5-a]pyrimidin-5(4H)-one hydrochloride] yielded a half-maximal inhibitory concentration (IC50) of 34 nM.

Turning to `O=c1cc(C2CCNCC2)n2ncc(-c3noc(-c4ccccc4F)n3)c2[nH]1` [Example 216, 3-[5-(2-fluorophenyl)-1,2,4-oxadiazol-3-yl]-7-(piperidin-4-yl)pyrazolo[1,5-a]pyrimidin-5 (4H)-one hydrochloride], half-maximal inhibition (IC50) required 34 nM.

As to `O=c1cc(C2CCNCC2)n2ncc(-c3noc(Cc4cccc(Cl)c4)n3)c2[nH]1` [Example 217, 3-[5-(3-chlorobenzyl)-1,2,4-oxadiazol-3-yl]-7-(piperidin-4-yl)pyrazolo[1,5-a]pyrimidin-5(4H)-one hydrochloride], the IC50 amounted to 36 nM.

As to `O=c1cc(C2CCNCC2)n2ncc(-c3noc(-c4cccc(Cl)c4F)n3)c2[nH]1` [Example 218, 3-[5-(3-chloro-2-fluorophenyl)-1,2,4-oxadiazol-3-yl]-7-(piperidin-4-yl)pyrazolo[1,5-a]pyrimidin-5(4H)-one hydrochloride], 54 nM corresponded to half-maximal inhibition (IC50). Compared with the last molecule, the IC50 is about 1.5-fold higher.

Molecule `COc1ccccc1-c1nc(-c2cnn3c(C4CCNCC4)cc(=O)[nH]c23)no1` [Example 219, 3-[5-(2-methoxyphenyl)-1,2,4-oxadiazol-3-yl]-7-(piperidin-4-yl)pyrazolo[1,5-a]pyrimidin-5(4H)-one hydrochloride] had an IC50 of 35 nM.

Molecule `Cc1ccc(-c2nc(-c3cnn4c(C5CCNCC5)cc(=O)[nH]c34)no2)cc1` [Example 220, 3-[5-(4-methylphenyl)-1,2,4-oxadiazol-3-yl]-7-(piperidin-4-yl)pyrazolo[1,5-a]pyrimidin-5 (4H)-one hydrochloride] gave an IC50 of 15 nM.

On to `O=C(O)c1noc(-c2cnn3c(C4CCNCC4)cc(=O)[nH]c23)n1` [Example 221, 5-[5-oxo-7-(piperidin-4-yl)-4,5-dihydropyrazolo[1,5-a]pyrimidin-3-yl]-1,2,4-oxadiazole-3-carboxylic acid hydrochloride], for which the IC50 was determined as 48 nM. This IC50 lies about 3.2-fold higher than the previous one.

The molecule `O=c1cc(C2CCNCC2)n2ncc(-c3nc(Cc4cccc(C(F)(F)F)c4)no3)c2[nH]1` [Example 222, 7-(piperidin-4-yl)-3-{3-[3-(trifluoromethyl)benzyl]-1,2,4-oxadiazol-5-yl}pyrazolo[1,5-a]pyrimidin-5(4H)-one hydrochloride] yielded an IC50 of 37 nM.

Molecule `CC(C)(c1ccccc1)c1noc(-c2cnn3c(C4CCNCC4)cc(=O)[nH]c23)n1` [Example 223, 3-[3-(2-phenylpropan-2-yl)-1,2,4-oxadiazol-5-yl]-7-(piperidin-4-yl)pyrazolo[1,5-a]pyrimidin-5(4H)-one hydrochloride] yielded a 50% inhibitory concentration (IC50) of 31 nM.

On to `O=c1cc(C2CCNCC2)n2ncc(-c3nc(Cc4ccc(F)cc4)no3)c2[nH]1` [Example 224, 3-[3-(4-fluorobenzyl)-1,2,4-oxadiazol-5-yl]-7-(piperidin-4-yl)pyrazolo[1,5-a]pyrimidin-5(4H)-one hydrochloride], for which the IC50 is 9.7 nM. Compared with the last molecule, the IC50 is about 3.2-fold lower.

In the case of `O=c1cc(C2CCNCC2)n2ncc(-c3noc(-c4cccc(Cl)c4)n3)c2[nH]1` [Example 226, 3-[5-(3-chlorophenyl)-1,2,4-oxadiazol-3-yl]-7-(piperidin-4-yl)pyrazolo[1,5-a]pyrimidin-5 (4H)-one hydrochloride], the midpoint of inhibition, the IC50, lay at 35 nM.

With `O=c1cc(C2CCNCC2)n2ncc(-c3noc(-c4cccc(C(F)(F)F)c4)n3)c2[nH]1` [Example 227, 7-(piperidin-4-yl)-3-{5-[3-(trifluoromethyl)phenyl]-1,2,4-oxadiazol-3-yl}pyrazolo[1,5-a]pyrimidin-5(4H)-one hydrochloride], the IC50 was 34 nM.

For `O=c1cc(C2CCNCC2)n2ncc(-c3noc(Cc4ccccc4)n3)c2[nH]1` [Example 228, 3-(5-benzyl-1,2,4-oxadiazol-3-yl)-7-(piperidin-4-yl)pyrazolo[1,5-a]pyrimidin-5(4H)-one hydrochloride], 33 nM corresponded to half-maximal inhibition (IC50).

`Cc1ccc(Cl)cc1-c1nc(-c2cnn3c(C4CCNCC4)cc(=O)[nH]c23)no1` [Example 230, 3-[5-(5-chloro-2-methylphenyl)-1,2,4-oxadiazol-3-yl]-7-(piperidin-4-yl)pyrazolo[1,5-a]pyrimidin-5(4H)-one hydrochloride] gave an IC50 of 36 nM.

On to `O=c1cc(C2CCNCC2)n2ncc(-c3noc(-c4ccc(C(F)(F)F)cc4)n3)c2[nH]1` [Example 231, 7-(piperidin-4-yl)-3-{5-[4-(trifluoromethyl)phenyl]-1,2,4-oxadiazol-3-yl}pyrazolo[1,5-a]pyrimidin-5(4H)-one hydrochloride], for which half-maximal inhibition (IC50) required 34 nM. This IC50 and that of the molecule before are within 1.5-fold of each other.

For `O=c1cc(C2CCNCC2)n2ncc(-c3noc(-c4ccc(C(F)(F)F)cc4Cl)n3)c2[nH]1` [Example 232, 3-{5-[2-chloro-4-(trifluoromethyl)phenyl]-1,2,4-oxadiazol-3-yl}-7-(piperidin-4-yl)pyrazolo[1,5-a]pyrimidin-5(4H)-one hydrochloride], the IC50 came to 71 nM.

On to `O=c1cc(C2CCNCC2)n2ncc(-c3noc(-c4ccc(Cl)cc4)n3)c2[nH]1` [Example 233, 3-[5-(4-chlorophenyl)-1,2,4-oxadiazol-3-yl]-7-(piperidin-4-yl)pyrazolo[1,5-a]pyrimidin-5(4H)-one hydrochloride], for which 36 nM corresponded to half-maximal inhibition (IC50).

For `O=c1cc(C2CCNCC2)n2ncc(-c3noc(-c4cc(Cl)cc(Cl)c4)n3)c2[nH]1` [Example 234, 3-[5-(3,5-dichlorophenyl)-1,2,4-oxadiazol-3-yl]-7-(piperidin-4-yl)pyrazolo[1,5-a]pyrimidin-5(4H)-one hydrochloride], the IC50 worked out at 35 nM. This IC50 and that of the molecule before are within 1.5-fold of each other.

As for `O=c1cc(C2CCNCC2)n2ncc(-c3nc(C(O)c4ccccc4)no3)c2[nH]1` (stereo not shown) [Example 238, 3-{3-[hydroxy(phenyl)methyl]-1,2,4-oxadiazol-5-yl}-7-(piperidin-4-yl)pyrazolo[1,5-a]pyrimidin-5(4H)-one hydrochloride], the IC50 amounted to 28 nM.

Turning to `COc1ccc(C(C)(C)c2nc(-c3cnn4c(C5CCNCC5)cc(=O)[nH]c34)no2)cc1` [Example 242, 3-{5-[2-(4-methoxyphenyl)propan-2-yl]-1,2,4-oxadiazol-3-yl}-7-(piperidin-4-yl)pyrazolo[1,5-a]pyrimidin-5(4H)-one hydrochloride], 20 nM corresponded to half-maximal inhibition (IC50).

`COc1ccc(C2(c3nc(-c4cnn5c(C6CCNCC6)cc(=O)[nH]c45)no3)CC2)cc1` [Example 245, 3-{5-[1-(4-methoxyphenyl)cyclopropyl]-1,2,4-oxadiazol-3-yl}-7-(piperidin-4-yl)pyrazolo[1,5-a]pyrimidin-5(4H)-one hydrochloride]: inhibition was half-maximal at 29 nM (IC50).

One may read the IC50 as the concentration needed to halve the response being measured. The low end stands for higher potency, the high end for lower potency.
